# Calls of active or inactive are those of the source. The calls are words filed in the database; no cut-off is given here.
# Legend:
# [1] = biological target: Beta-2 adrenergic receptor (Homo sapiens, UniProt P07550); assay: Agonist activity at human adrenergic beta2 receptor expressed in H292 cells assessed as intracellular cAMP accumulation after 1 hr; assay type: functional, cell-based
# Cavia porcellus [2] = assay: Bronchodilatory activity against histamine-induced bronchoconstriction in guinea pig at ED80 intratracheally administered 2 hrs before challenge measured up to 12 hrs; assay type: functional; settings: inhaled or nasal
# Cavia porcellus [3] = assay: Bronchodilatory activity against histamine-induced bronchoconstriction in guinea pig at ED80 intratracheally administered 2 hrs before challenge measured up to 2 hrs; assay type: functional, organism-based
# Cavia porcellus [4] = assay: Bronchodilatory activity against histamine-induced bronchoconstriction in guinea pig at ED80 intratracheally administered 2 hrs before challenge measured after 2 hrs; assay type: functional, organism-based
# Cavia porcellus [5] = species on record: Cavia porcellus; assay: Bronchodilatory activity against histamine-induced bronchospasm in guinea pig; assay type: functional, organism-based
# Chain of Beta-2 adrenergic receptor (P07550 whole entry): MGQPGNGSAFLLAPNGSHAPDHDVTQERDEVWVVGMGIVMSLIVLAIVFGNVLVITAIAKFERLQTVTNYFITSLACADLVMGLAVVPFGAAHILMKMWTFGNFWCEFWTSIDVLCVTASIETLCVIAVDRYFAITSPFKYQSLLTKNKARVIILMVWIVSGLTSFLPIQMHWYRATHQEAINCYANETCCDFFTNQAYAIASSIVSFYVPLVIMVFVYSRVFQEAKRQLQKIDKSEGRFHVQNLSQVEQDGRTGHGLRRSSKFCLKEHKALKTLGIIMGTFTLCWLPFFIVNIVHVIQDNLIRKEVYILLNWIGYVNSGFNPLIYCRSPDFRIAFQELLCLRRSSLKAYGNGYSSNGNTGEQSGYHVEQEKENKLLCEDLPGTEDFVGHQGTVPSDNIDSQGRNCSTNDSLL
EC50 [1] [nM],Structure (SMILES),further results
> 1000,COc1ccc(CCNCCN(C)C(=O)CCOCCc2ccccc2)c2sc(=O)[nH]c12,–
1.58,O=C(CCOCCc1ccccc1)NCCNCCc1ccc(O)c2nc(O)sc12,–
7.94,CC(C)(CNCCc1ccc(O)c2[nH]c(=O)sc12)NC(=O)CCOCCc1ccccc1,–
–,COc1ccc(CC(C)NCC(O)c2ccc(O)c(NC=O)c2)cc1 (configuration not stated) [FORMOTEROL],ED80 (Cavia porcellus [2]): 1.4 µg/kg
0.794,CCCCN(CCNC[C@H](O)c1ccc(O)c2[nH]c(=O)sc12)C(=O)CCOCCc1ccccc1,–
–,OCc1cc(C(O)CNCCCCCCOCCCCc2ccccc2)ccc1O (configuration not stated) [SALMETEROL],ED80 (Cavia porcellus [2]): 0.7 µg/kg
1,CCN(CCNCCc1ccc(O)c2[nH]c(=O)sc12)C(=O)CCOCCc1ccccc1,–
7.94,CC(C)N(CCNCCc1ccc(O)c2[nH]c(=O)sc12)C(=O)CCOCCc1ccccc1,–
0.501,CN(CCNCCc1ccc(O)c2[nH]c(=O)sc12)C(=O)CCOCCc1ccccc1,–
> 1000,CN(CCc1ccc(O)c2[nH]c(=O)sc12)CCN(C)C(=O)CCOCCc1ccccc1,–
1.58,CCCCN(CCNCCc1ccc(O)c2[nH]c(=O)sc12)C(=O)CCOCCc1ccccc1,Activity (Cavia porcellus [3]): Active; Activity (Cavia porcellus [4]): inactive; Activity (Cavia porcellus [5]): Dose-dependent effect; ED80 (Cavia porcellus [2]): 2.6 µg/kg
126,CCCCN(CCN(C)CCc1ccc(O)c2[nH]c(=O)sc12)C(=O)CCOCCc1ccccc1,–
7.94,CCCN(CCNCCc1ccc(O)c2[nH]c(=O)sc12)C(=O)CCOCCc1ccccc1,–

# — ChEMBL document CHEMBL1799993, “Design driven HtL: The discovery and synthesis of new high efficacy β₂-agonists” (Bioorg Med Chem Lett, 2011)
